Data: patent publication US6352722B1, “Derivatized carbohydrates, compositions comprised thereof and methods of use thereof” (Quadrant Holdings Cambridge Limited, priority 1997, dated 2002)

Columns and labels:
[1] = Glass transition temperature (Tg) of derivatized carbohydrates, by DSC; assay type: physicochemical
Excerpt: The reaction product can be characterized structurally by methods known in the art, including, but not limited to, nuclear magnetic resonance spectroscopy (NMR) and its material science properties characterized by differential scanning calorimetry (DSC). The characteristic melting points and Tgs (glass transition temperatures) for the derivatized carbohydrates can also be determined by DSC and other methods known in the art.
(§1) The carbohydrate derivatives were routinely synthesized by standard esterification of the carbohydrate with the chloride of the desired hydrocarbon side chain under anhydrous conditions and the resulting derivatives purified by standard techniques of solvent extraction and re-crystallization. For example, trehalose octa-3,3-dimethylbutyrate was synthesized by reacting 3,3,-dimethylbutyroyl chloride with trehalose in anhydrous pyridine, followed by extraction with ether, hydrochloric acid, potassium carbonate solution and water and finally re-crystallized twice from alcohol to yield colorless, needle-like crystals (˜80% yield) of m.pt 138-140° C., αD 112°. Trehalose hexa-3,3-dimethylbutyrate (THEX) can be prepared by protecting the 6,6′-hydroxy group of trehalose with a bulky group such as trityl or t-butyldiphenylsilyl, for example by heating trehalose and trityl chloride in pyridine. The 6,6′-ditrityltrehalose can be acylated with 3,3-dimethylbutyroyl chloride in pyridine to give 6,6′-ditritylhexa-3,3-dimethylbutyryltrehalose. The trityl group can be removed by strong acid, for example hydrogen bromide in acetic acid, to give THEX. TACT can be prepared by acylating THEX with acetic anhydride in pyridine. Suitable work-up yields the HDC in crystalline form. The physical characteristics, melting points and glass transition temperatures (Tg, ° C.) of selected carbohydrate derivatives are shown in Tables 1-5.

[2] = Glass formation, crystallization and glass stability above ambient temperature; assay type: physicochemical
Excerpt: In the usual process to form a vitreous glass, a high temperature melt is quenched (cooled quickly) to solidify without crystallization to a vitreous glass. Most glassy materials can theoretically quench to a vitreous glass, however, factors such as low melt viscosity, thermodynamically favorable crystalline states and thermal degradation, limit their potential to form vitreous rather than crystalline solids.
as §1
This unusual property of branched-chain derivatives enables more hydrophobic derivatives (compared to the acetates) to be prepared, which permits further reduction of drug release rates for longer term applications.

[3] = In vitro USP (volume 23) type 2 dissolution test, release of active from HDC solid vehicle; assay type: physicochemical; settings: saline with 0.1% sodium cholate; for release of fluticasone propionate from single HDC formulation: compared to trehalose octaacetate formulation Q1 (FIG. 3)
Excerpt: (§2) The model hydrophilic drug, diltiazem hydrochloride (“hydrophilic active”), was incorporated (10% loading) into solid vehicles of the single straight chain HDC trehalose octaacetate or the branched chain HDCs trehalose octa-3,3, dimethylbutyrate and trehalose octapivalate as well as composite formulations (1:1 ratio) of the two branched-chain HDCs or the straight chain HDC trehalose octaacetate and the branched chain HDC trehalose octapivalate, by quenching from the melt. Release of the active from the HDC solid dose delivery vehicle was assessed using an in vitro USP (volume 23) type 2 dissolution test in saline containing 0.1% sodium cholate as the dissolution medium.
(§3) The model hydrophobic steroid fluticasone propionate (“hydrophobic active”) was incorporated (5% loading) into solid vehicles of the single straight chain HDC trehalose octaacetate or the branched chain HDCs trehalose octa-3,3, dimethylbutyrate and trehalose dipropanoate hexaacetate and composite formulations (1:1 ratio) of the two branched-chain HDCs by either quenching from the melt or solvent evaporation by rotary evaporation. Melt incorporation was carried out by melting the HDCs at 150-170° C. and dissolving the active in the melt at 120-140° C. Rotary evaporation was carried out using a Buchi Rotavapor R-124 using a 20% solution of active plus HDCs in a dichloromethane: acetone mixed solvent (9:1 ratio) system. The hydrophobic active was also incorporated into solid vehicles of the branched chain HDCs, trehalose octapivalate, trehalose diisobutyrate hexaacetate and lactose isobutyrate heptaacetate, either by quenching from the melt or solvent evaporation by rotary evaporation. Release of hydrophobic active from the HDC solid dose delivery vehicle was assessed using an in vitro USP (volume 23) type 2 dissolution test in saline containing 0.1% sodium cholate as the dissolution medium.
(§4) As an example of a polypeptide drug, the polypeptide hormone insulin (“polypeptide active”) was incorporated (10% loading) into solid vehicles of the single branched chain HDCs trehalose diisobutyrate hexaacetate and trehalose hexapivalate and composite formulations of the branched chain HDCs trehalose diisobutyrate hexaacetate and trehalose octapivalate (8:1 ratio) by solvent removal by lyophilization of a 20% solution of insulin plus HDCs in dimethylsulfoxide. […] Release of active from the HDC solid dose delivery vehicle was assessed using an in vitro USP (volume 23) type 2 dissolution test in saline containing 0.1% sodium cholate as the dissolution medium.

[4] = Tg of HDC formulations with incorporated active; assay type: physicochemical
Excerpt: as §2
The model hydrophilic drug diltiazem hydrochloride was also incorporated (5% loading) into solid vehicles of the single branched chain HDCs trehalose diisobutyrate hexaacetate and trehalose octapivalate and composite formulations (1:1 ratio) of the two branched-chain HDCs by solvent removal by rotary evaporation, in a Buchi Rotavapor R-124, of a 20% solution of active plus HDCs in a dichloromethane: acetone mixed solvent (9:1 ratio) system. […] (trehalose octapivalate) of the single branched-chain HDC formulations of active.
as §3, §4

[5] = Devitrification / glass stability when immersed in aqueous media; settings: immersed in saline medium at 37° C.
[6] = derivatized carbohydrate alone, Tables 1-4
[7] = hydrophobic active (fluticasone propionate, 5% loading) incorporated
[8] = derivatized carbohydrate without active, Table 5
[9] = polypeptide active (insulin, 10% loading) incorporated by lyophilization from dimethylsulfoxide
[10] = hydrophilic active (diltiazem hydrochloride) incorporated

| Compound | Tg(° C.) [1, 6] | Tg (° C.) with active incorporated [4, 7] | Tg(° C.) [1, 8] | further results |
| --- | --- | --- | --- | --- |
| CC(=O)OC[C@H]1O[C@H](O[C@H]2O[C@H](COC(C)=O)[C@@H](OC(=O)CC(C)(C)C)[C@H](OC(=O)CC(C)(C)C)[C@H]2OC(=O)CC(C)(C)C)[C@H](OC(=O)CC(C)(C)C)[C@@H](OC(=O)CC(C)(C)C)[C@@H]1OC(=O)CC(C)(C)C [Trehalose 6,6′-diaacetate hexa-3,3-dimethylbutyrate] | 44 °C | – | – | stability of the glassy state [5]: the glass stability is reduced |
| Trehalose hexapivalate | 86 °C | – | 86 °C | Tg (° C.) with active incorporated [4, 9]: 76.5 °C |
| CC(C)C(=O)OCC1OC(OC2C(COC(=O)C(C)C)OC(OC(=O)C(C)C)C(OC(=O)C(C)C)C2OC(=O)C(C)C)C(OC(=O)C(C)C)C(OC(=O)C(C)C)C1OC(=O)C(C)C (stereo not shown) [Cellobiose octaisobutyrate] | – | – | – | COMMENT: glass formation / glass stability above ambient temperature [2]: very hard to quench to glass |
| Trehalose diisobutyrate hexaacetate | – | 50 °C | 42 °C | Tg (° C.) with active incorporated [4, 10]: 46.5 °C; Tg (° C.) with active incorporated [4, 9]: 50.1 °C |
| Trehalose hexa-3,3-dimethylbutyrate | 64 °C | – | – | stability of the glassy state [5]: stable in the glassy state |
| CC(=O)OC[C@H]1O[C@@H](O[C@H]2[C@H](OC(C)=O)[C@@H](OC(C)=O)C(OC(=O)C(C)C)O[C@@H]2COC(C)=O)[C@H](OC(C)=O)[C@@H](OC(C)=O)[C@H]1OC(C)=O (stereo partly shown) [Lactose isobutyrate heptaacetate] | 60 °C | 59 °C | 60 °C | crystallization from solution ([2]; blend: small amount of the corresponding anomer added): fails to crystallize; crystallization from solution ([2]; pure α,β anomers): crystallize from solution |
| Trehalose dipropanoate hexaacetate | – | 44 °C | 38 °C | – |

Further lines, with some results ahead:

| Tg(° C.) [1, 6] | Tg (° C.) with active incorporated [4, 7] | Tg(° C.) [1, 8] | Compound | further results |
| --- | --- | --- | --- | --- |
| 53 °C | – | – | CC(=O)OCC1OC(OC2C(COC(C)=O)OC(OC(C)=O)C(OC(C)=O)C2OC(C)=O)C(OC(C)=O)C(OC(C)=O)C1OC(C)=O (stereo not drawn) [β-Cellobiose octaacetate, reference compound] | COMMENT: glass formation / glass stability above ambient temperature [2]: Good glass former |
| 42 °C | 45 °C | 46 °C | CC(C)(C)CC(=O)OC[C@H]1O[C@H](O[C@H]2O[C@H](COC(=O)CC(C)(C)C)[C@@H](OC(=O)CC(C)(C)C)[C@H](OC(=O)CC(C)(C)C)[C@H]2OC(=O)CC(C)(C)C)[C@H](OC(=O)CC(C)(C)C)[C@@H](OC(=O)CC(C)(C)C)[C@@H]1OC(=O)CC(C)(C)C [Trehalose octa-3,3-dimethylbutyrate] | release of diltiazem hydrochloride (DZM) from single HDC formulation ([3]; 10% loading, compared to trehalose octaacetate formulation (FIG. 1)): much slower release; release of fluticasone propionate from single HDC formulation [3]: much slower release |
| 65 °C | – | – | CC(=O)OCC1OC(OC2C(COC(C)=O)OC(OC(C)=O)C(OC(C)=O)C2OC(C)=O)C(OC(C)=O)C(OC(C)=O)C1OC(C)=O (stereo not drawn) [α-Cellobiose octaacetate, reference compound] | COMMENT: glass formation / glass stability above ambient temperature [2]: Poor glass former |
| 81 °C | 80 °C | 80 °C | CC(C)(C)C(=O)OC[C@H]1O[C@H](O[C@H]2O[C@H](COC(=O)C(C)(C)C)[C@@H](OC(=O)C(C)(C)C)[C@H](OC(=O)C(C)(C)C)[C@H]2OC(=O)C(C)(C)C)[C@H](OC(=O)C(C)(C)C)[C@@H](OC(=O)C(C)(C)C)[C@@H]1OC(=O)C(C)(C)C [Trehalose octapivalate] | release of fluticasone propionate from single HDC formulation [3]: much slower release; Tg (° C.) with active incorporated [4, 10]: 83.7 °C |
| 55 °C | 53 °C | 50 °C | CC(=O)OCC1OC(OC2OC(COC(C)=O)C(OC(C)=O)C(OC(C)=O)C2OC(C)=O)C(OC(C)=O)C(OC(C)=O)C1OC(C)=O (stereo not shown) [Trehalose octaacetate, reference compound] | release of active (insulin) ([3]; after 1 hour in the dissolution assay): 88% |
